# Data: patent US10709707B2, “Methods of treating ocular conditions” (Oyster Point Pharma, Inc., priority 2016, dated 2020)
# Like-named read-outs stand apart in the source and are kept apart here.
# How the values were obtained:
# [1] = test system: subjects (intranasal administration); assay: Panel of compounds administered intranasally: effect on tearing and discomfort response
# Procedure: (§2) A panel of twenty compounds with various receptor binding profiles, including other nicotinic acetylcholine receptor (nAchR) agonists were tested. At the onset of the experiment, 50 microliters of a 0.01 mg/mL compound formulation was administered intranasally to three subjects.
# formalin test = assay: Analgesic effects, formalin test; assay type: in vivo, Mouse: CD-1; conditions: Compound 1 0.1, 1 and 10 mg/kg, Aspirin 100 mg/kg, Morphine 30 mg/kg; for analgesic effects after formalin injection, Day 1: po
# [2] = test system: subjects (intranasal administration); conditions: in vivo
# Procedure: as §2
# [3] = test system: paclitaxel-induced neuropathy, allodynia; assay: Reversing symptoms of paclitaxel-induced neuropathy; assay type: in vivo, Rat; conditions: 100 mg/kg ip, 90 min before testing, Weeks 3 and 4 post-paclitaxel
# behavioral sensitization = assay: CNS safety pharmacology, behavioral sensitization by motor activity; assay type: in vivo, Rat: Sprague-Dawley; conditions: Compound 1 3, 10, 30 mg/kg po
# [4] = distribution studies with [14C]-Compound 1 in Long Evans and Sprague-Dawley rat; assay type: in vivo
# Source text: In male and female Sprague-Dawley rats, tissue distribution appeared similar to that of the Long Evans rat.
# [5] = test system: cryopreserved hepatocytes from rat, dog, monkey and human; assay: 24-hour incubation in cryopreserved hepatocytes, species comparison; assay type: in vitro ADME
# Source text: (§1) In human and monkey, the primary route of metabolism was through oxidation of the pyrrolidine ring (metabolite M02) before further metabolism via dioxidation to M1 or M3. In humans, parent accounted for 37% of extracellular radioactivity, M02 was 13.9%.M1 was 4.1% and M3 was 1.1%. In monkey, parent accounted for 14.2%, M02 was 5.0%, M1 was 5.8% and M3 was 29.4%. In the rat, the primary metabolite is an N-oxide-pyrimidine derivative (M9); it accounted for 71.9% of extracellular radioactivity while parent represented only 1.4%.
# [6] = excretion of radioactivity in Sprague-Dawley rat; conditions: 30 mg/kg po
# [7] = test system: cryopreserved hepatocytes; assay: 24-hour incubation in cryopreserved hepatocytes (rat); assay type: in vitro ADME
# Source text: as §1
# [8] = test system: cryopreserved hepatocytes; assay: 24-hour incubation in cryopreserved hepatocytes (monkey); assay type: in vitro ADME
# Source text: as §1
# [9] = test system: cryopreserved hepatocytes; assay: 24-hour incubation in cryopreserved hepatocytes (human); assay type: in vitro ADME
# Source text: as §1
# [10] = metabolism in vivo after single po dose in rats; conditions: rat, 30 mg/kg
# Procedure: The main metabolite in plasma and urine was M9; in plasma from 6 to 24 hours post-dose an unknown polar metabolite (M13) accounted for a significant portion of total radioactivity. In plasma, parent accounted for 11.7% of AUC0-24 total radioactivity, M9 accounted for 20.9% and M13 accounted for 15.9%. In urine (the primary route of elimination) over a 24 hours period, parent accounted for 17.8% of total radioactivity, M9 accounted for 37.7% and M13 accounted for 0.7%.
# [11] = excretion of radioactivity in monkey; assay type: in vivo; conditions: for administered radioactive dose recovered in cage wash / administered radioactive dose recovered in diet debris / administered radioactive dose recovered in feces / administered radioactive dose recovered in urine / administered radioactive dose recovered, total: 168-hour period
# [12] = test system: STZ rat model of diabetic neuropathy; assay: Mechanical allodynia, STZ rat model of diabetic neuropathy; assay type: in vivo, Rat: Sprague-Dawley; conditions: insulin-treated group
# [13] = 50 microliters intranasally, three subjects, 0.01 mg/mL increased logarithmically up to 10 mg/mL
molecule,measurement,setting,value
Cc1cc([C@@H]2CCCN2C)on1 [ABT-418],Causes Tearing,[1]; [13],Yes
same,Discomfort Response,[1]; [13],Moderate
CC(=O)Oc1ccccc1C(=O)O [Aspirin],"analgesic effects after formalin injection, Day 1",formalin test,mg/kg) and Aspirin at 100 mg/kg failed
O=Cc1ccccc1 [Benzaldehyde],Causes Tearing,[1]; [13],No
same,Discomfort Response,[1]; [13],No
CNCCc1ccccn1 [Betahistine],Causes Tearing,[1]; [13],No
same,Discomfort Response,[1]; [13],No
CC12CCC(CC1=O)C2(C)C (stereo not drawn) [Camphor],Causes Tearing,[1]; [13],No
same,Discomfort Response,[1]; [13],No
COc1cc(CNC(=O)CCCC/C=C/C(C)C)ccc1O [Capsaicin],Causes Tearing,[1]; [13],Yes
same,Discomfort Response,[1]; [13],Severe
Cc1ccc(C(C)C)cc1O [Carvacrol],Causes Tearing,[1]; [13],Yes
same,Discomfort Response,[1]; in vivo,Severe
O=c1cccc2n1C[C@@H]1CNC[C@H]2C1 [Cytisine],Causes Tearing,[1]; in vivo,Partial
same,Discomfort Response,[2],Moderate
CC[N+](CC)(CC(=O)Nc1c(C)cccc1C)Cc1ccccc1 [Denatonium],Causes Tearing,[1]; [13],No
same,Discomfort Response,[1]; [13],No
CCOc1cc(C=O)ccc1O [Ethylvanillin],Causes Tearing,[1]; [13],No
CC12CCC(CC1)C(C)(C)O2 [Eucaliptol],Causes Tearing,[1]; [13],No
same,Discomfort Response,[1]; [13],No
C=CCc1ccc(O)c(OC)c1 [Eugenol],Causes Tearing,[1]; [13],No
same,Discomfort Response,[1]; [13],No
COc1ccc(/C=C2\CCCN=C2c2cccnc2)c(OC)c1 [GTS-21],Causes Tearing,[1]; [13],Yes
same,Discomfort Response,[1]; [13],Severe
"NCC1(CC(=O)O)CCCCC1 [Gabapentin, reference compound]",reversing allodynia,[3],"100 mg/kg, was effective at reversing"
CC(C)=CCC/C(C)=C/CO [Geraniol],Causes Tearing,[1]; [13],No
same,Discomfort Response,[1]; [13],No
CC1CCC(C(C)C)C(O)C1 (stereo not drawn) [Menthol],Causes Tearing,[1]; [13],No
same,Discomfort Response,[1]; [13],No
CN1CC[C@]23c4c5ccc(O)c4O[C@H]2[C@@H](O)C=C[C@H]3[C@H]1C5 [Morphine],"analgesic activity after formalin injection, Day 7",formalin test; once daily for 7 days po,mg/kg) persisted on Day 7.
same,"analgesic effects after formalin injection, Day 1",formalin test,"mg/kg, po) produced a significant"
CN1CCCC1c1cccnc1 (stereo not drawn) [Nicotine],Causes Tearing,[1]; [13],Yes
same,behavioral sensitization (motor activity),behavioral sensitization,marked behavioral sensitization.
same,Discomfort Response,[2],Severe
O=C(N[C@H]1CN2CCC1CC2)c1cc2ccoc2cn1 [PHA-543613],Causes Tearing,[1]; [13],No
same,Discomfort Response,[1]; [13],No
CC(C)=C1CC[C@@H](C)CC1=O [Pulegone],Causes Tearing,[1]; [13],No
same,Discomfort Response,[1]; in vivo,No
O=C(N[C@@H]1C2CCN(CC2)[C@H]1Cc1cccnc1)c1cc(F)cc(F)c1 [TC-6987],Causes Tearing,[1]; [13],No
same,Discomfort Response,[1]; [13],No
c1cnc2cc3c(cc2n1)[C@@H]1CNC[C@H]3C1 [Varenicline],Causes Tearing,[1]; [13],Yes
same,Discomfort Response,[1]; [13],No
C(=C\[C@H]1CCNC1)/c1cncnc1 [[^14C]-Compound 1],tissue with highest concentration of radioactivity at final sampling time,"[4]; male Long Evans rat, 1 mg/kg po, 168 hours",adrenal medulla
same,tissue with highest concentration of radioactivity at final sampling time,"[4]; male and female Sprague-Dawley rats, 30 mg/kg po, 24 hours",adrenal medulla
same,species ranking of metabolism,[5],rat>monkey>human>dog
same,extent of metabolism,[5]; depending on species,slightly to moderately metabolized
same,time by which nearly all recovered radioactivity was eliminated,[6],≤ 24 h
same,administered dose recovered in feces,[6]; 168 hour period,10.9%
same,administered dose recovered in urine,[6]; 168 hour period,77.6%
same,"administered dose recovered, total",[6]; 168 hour period post-dose,91.2%
same,share of extracellular radioactivity,[7],1.4%
same,share of extracellular radioactivity,[8],14.2%
same,share of extracellular radioactivity,[9],37%
same,extent of metabolism in vivo,[10],extensively metabolized
same,share of AUC0-24 total radioactivity in plasma,[10],11.7%
same,share of total radioactivity in urine,[10],17.8%
same,time by which nearly all recovered radioactivity was eliminated,[11]; 5 mg/kg iv infusion,≤ 24 h
same,administered radioactive dose recovered in cage wash,[11]; 5 mg/kg iv infusion,7.6%
same,administered radioactive dose recovered in diet debris,[11]; 5 mg/kg iv infusion,6.9%
same,administered radioactive dose recovered in feces,[11]; 5 mg/kg iv infusion,7.6%
same,administered radioactive dose recovered in urine,[11]; 5 mg/kg iv infusion,70.7%
same,"administered radioactive dose recovered, total",[11]; 5 mg/kg iv infusion,93.0%
same,time by which nearly all recovered radioactivity was eliminated,[11]; 10 mg/kg po,≤ 48 h
same,administered radioactive dose recovered in cage wash,[11]; 10 mg/kg po,10.2%
same,administered radioactive dose recovered in diet debris,[11]; 10 mg/kg po,6.6%
same,administered radioactive dose recovered in feces,[11]; 10 mg/kg po,12.8%
same,administered radioactive dose recovered in urine,[11]; 10 mg/kg po,60.7%
same,"administered radioactive dose recovered, total",[11]; 10 mg/kg po,90.3%
insulin: insulin-treated group in the STZ rat model,significant improvement in pain sensitivity,[12],glucose levels but no
